How the values were obtained:
[1] = target: human metabotropic glutamate receptor mGluR2 (Homo sapiens (Human), UniProt Q14416); experiment: [35S]GTPγS binding test, mGluR2; assay type: biochemical; settings: inhibition of glutamate (20 μM)-stimulated [35S]GTPγS specific binding, CHO cell membranes
Description: (§1) Test 1 [^35S]GTPγS binding test
(§2) CHO cells stably expressing human metabotropic glutamate receptors mGluR2 and mGluR3 were cultured at 37° C. under 5% CO2 using a Dulbecco's modified Eagle medium [1% proline, 1 mM sodium pyruvate, 1 mM succinic acid, 1 mM disodium succinate, 100 units/mL penicillin, 100 μg/mL streptomycin, 400 (mGluR2) or 300 (mGluR3) μg/mL hygromycin B, 2 mM L-glutamine (added just before use)] containing 10% dialyzed fetal bovine serum. The cells in a confluent state were washed with PBS(−), then dissociated using a cell scraper, and centrifuged at 1000 rpm for 5 minutes at 4° C. to recover the cells. The obtained pellet was suspended in a 20 mM HEPES buffer (pH 7.4) (mGluR2) or 20 mM HEPES buffer containing 1 mM EDTA (pH 7.4) (mGluR3), and the suspension was homogenized in a Teflon® homogenizer and then centrifuged at 48,000×g for 20 minutes at 4° C. to obtain a pellet again. The obtained pellet was subjected to two additional cycles of washing and centrifugation and then homogenized with the buffer described above to obtain a crude membrane fraction. The crude membrane fraction was diluted with a buffer for a binding test (final concentration: 20 mM HEPES, 100 mM NaCl, 10 mM MgCl2, 10 μM GDP, […], 0.1% BSA) (mGluR2) or (final concentration: 20 mM HEPES, 1 mM EDTA, 100 mM NaCl, 10 mM MgCl2, 10 μM GDP, 10 μg/mL saponin, 0.1% BSA) (mGluR3). To the crude membrane fraction containing 10 μg of membrane proteins/assay, Compounds (II)-1 to (II)-15 were each added, and the mixture was incubated at 30° C. for 20 minutes. Then, glutamate (final concentration: 20 (mGluR2) or 1 (mGluR3) μM) and [^35S]GTPγS (final concentration: 0.15 nM) were added thereto, and the mixture was incubated at 30° C. for 1 hour. The solution thus incubated was filtered by suction onto Whatman GF/C filter, and the filter was washed with 1000 μL of an ice-cooled 20 mM HEPES buffer (pH 7.4) (mGluR2) or 20 mM HEPES buffer containing 1 mM EDTA (pH 7.4) (mGluR3). A scintillation cocktail was added to the obtained filter, and the membrane binding radioactivity was measured using a liquid scintillation counter. The residual radioactivity in the absence of glutamate was defined as nonspecific binding, and the difference from the residual radioactivity in the presence of glutamate was defined as specific binding. From the percent inhibition of specific binding at varying concentrations of Compounds (II)-1 to (II)-15, an inhibition curve was obtained using nonlinear analysis. The concentrations at which Compounds (II)-1 to (II)-15 inhibited 50% of specific binding (IC50) were calculated from the inhibition curve.

[2] = target: human metabotropic glutamate receptor mGluR3 (Homo sapiens (Human), UniProt Q14832); experiment: [35S]GTPγS binding test, mGluR3; assay type: biochemical; settings: inhibition of glutamate (1 μM)-stimulated [35S]GTPγS specific binding, CHO cell membranes
Description: as §1, §2

[3] = Stability test in solution (pH 1.2 and pH 6.5); assay type: physicochemical; settings: 1 hour; for Compound's percent residue (%) pH 6.5: 20 mM phosphate buffer pH 6.5, 37° C.; for Compound's percent residue (%) pH 1.2: hydrochloric acid solution pH 1.2, 37° C.
Description: Test 2: Stability Test in Solution
A test to determine the stability of Inventive Compounds (I-A) or (I) in a hydrochloric acid solution (pH 1.2) and 20 mM phosphate buffer (pH 6.5) was conducted in accordance with the following method.
A compound was dissolved in a hydrochloric acid solution (pH 1.2) containing hydrochloric acid and sodium chloride or a 20 mM phosphate buffer (pH 6.5) containing disodium hydrogenphosphate, sodium dihydrogenphosphate and sodium chloride to prepare a solution with a concentration of about 50 ng/mL (near the saturated concentration when the compound was not dissolved). The solution was incubated at 37° C. for 1 hour and the compound's concentration before and after the incubation was quantified by high-performance liquid chromatography to calculate the percent residue of the compound. Compounds having low solubility were assessed as being not applicable.
The percent residues of representative compounds in the hydrochloric acid solution (pH 1.2) and the 20 mM phosphate buffer (pH 6.5) are shown in the following Table 2.

Chain of human metabotropic glutamate receptor mGluR3 (Q14832 23-879): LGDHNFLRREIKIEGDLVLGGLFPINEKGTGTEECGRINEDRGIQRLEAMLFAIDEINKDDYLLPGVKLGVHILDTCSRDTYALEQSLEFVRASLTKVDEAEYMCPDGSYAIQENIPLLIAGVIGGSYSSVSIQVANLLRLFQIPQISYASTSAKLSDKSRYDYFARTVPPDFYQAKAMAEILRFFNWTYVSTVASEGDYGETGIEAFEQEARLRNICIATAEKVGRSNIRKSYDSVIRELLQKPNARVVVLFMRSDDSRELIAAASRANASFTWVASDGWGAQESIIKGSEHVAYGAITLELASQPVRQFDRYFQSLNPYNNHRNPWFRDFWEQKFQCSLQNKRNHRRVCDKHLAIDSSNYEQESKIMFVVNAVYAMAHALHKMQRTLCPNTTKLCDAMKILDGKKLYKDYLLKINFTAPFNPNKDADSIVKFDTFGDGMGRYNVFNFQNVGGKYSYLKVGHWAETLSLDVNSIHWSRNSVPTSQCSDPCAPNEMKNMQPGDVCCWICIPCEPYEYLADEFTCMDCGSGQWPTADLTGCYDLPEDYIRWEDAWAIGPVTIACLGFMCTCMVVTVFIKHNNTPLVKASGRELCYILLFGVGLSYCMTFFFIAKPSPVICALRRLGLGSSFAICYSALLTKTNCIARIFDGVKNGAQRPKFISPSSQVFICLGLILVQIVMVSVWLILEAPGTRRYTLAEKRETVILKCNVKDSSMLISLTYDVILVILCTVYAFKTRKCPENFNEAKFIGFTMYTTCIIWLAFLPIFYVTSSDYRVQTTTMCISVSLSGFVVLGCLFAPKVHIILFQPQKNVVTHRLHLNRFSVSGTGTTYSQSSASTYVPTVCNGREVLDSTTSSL
Chain of human metabotropic glutamate receptor mGluR2 (Q14416 19-872): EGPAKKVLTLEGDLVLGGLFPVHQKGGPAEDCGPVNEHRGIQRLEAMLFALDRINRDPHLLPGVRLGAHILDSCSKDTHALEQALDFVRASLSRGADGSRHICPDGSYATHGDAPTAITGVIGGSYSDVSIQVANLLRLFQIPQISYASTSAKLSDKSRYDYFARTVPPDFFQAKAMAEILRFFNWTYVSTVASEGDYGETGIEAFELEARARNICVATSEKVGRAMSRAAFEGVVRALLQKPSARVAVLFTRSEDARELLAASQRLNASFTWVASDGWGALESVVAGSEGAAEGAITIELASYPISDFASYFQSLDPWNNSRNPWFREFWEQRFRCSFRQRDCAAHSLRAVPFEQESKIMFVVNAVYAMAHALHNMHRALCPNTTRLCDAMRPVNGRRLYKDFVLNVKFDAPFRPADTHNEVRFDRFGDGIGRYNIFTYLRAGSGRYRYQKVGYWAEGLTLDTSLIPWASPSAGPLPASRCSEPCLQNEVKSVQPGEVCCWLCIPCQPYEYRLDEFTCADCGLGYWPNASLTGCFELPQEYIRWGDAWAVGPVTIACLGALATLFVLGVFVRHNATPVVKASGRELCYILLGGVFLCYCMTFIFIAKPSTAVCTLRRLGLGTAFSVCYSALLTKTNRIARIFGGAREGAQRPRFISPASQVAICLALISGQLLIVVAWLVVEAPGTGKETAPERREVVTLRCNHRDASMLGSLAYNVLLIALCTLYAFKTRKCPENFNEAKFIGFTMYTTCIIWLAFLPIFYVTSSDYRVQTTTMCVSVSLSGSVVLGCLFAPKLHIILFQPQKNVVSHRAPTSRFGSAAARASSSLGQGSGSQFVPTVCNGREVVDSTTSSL

Row | SMILES | IC50 [1] | IC50 [2] | Compound's percent residue (%) pH 6.5 [3] | Compound's percent residue (%) pH 1.2 [3]
1 | CC(C)CCO[C@@H]1C[C@@H]2[C@H]([C@]1(N)C(=O)O)[C@@]2(F)C(=O)O [Compound (II)-7, (1R,2R,3R,5R,6R)-2-amino-6-fluoro-3-(3-methylbutoxy)bicyclo[3.1.0]hexane-2,6-dicarboxylic acid] | 98.8 nM | 173 nM |  | 
2 | N[C@]1(C(=O)O)[C@H]2[C@@H](C[C@H]1OC1CCCC1)[C@]2(F)C(=O)O [Compound (II)-9, (1R,2R,3R,5R,6R)-2-amino-3-(cyclopentyloxy)-6-fluorobicyclo[3.1.0]hexane-2,6-dicarboxylic acid] | 62.2 nM | 97.6 nM |  | 
3 | Cc1ccc(CO[C@@H]2C[C@@H]3[C@H]([C@]2(N)C(=O)O[C@@H](C)OC(=O)O[C@@H]2C[C@H](C)CC[C@H]2C(C)C)[C@@]3(F)C(=O)O)cc1 [Example 34, (1R,2R,3R,5R,6R)-2-amino-6-fluoro-3-[(4-methylphenyl)methoxy]-2-({(1R)-1-[({[(1R,2S,5R)-5-methyl-2-(propan-2-yl)cyclohexyl]oxy}carbonyl)oxy]ethoxy}carbonyl)bicyclo[3.1.0]hexane-6-carboxylic acid] |  |  | 94% | 100%
4 | CC(C)(C)C(=O)OCOC(=O)[C@@]1(N)[C@H]2[C@@H](C[C@H]1OCc1ccc(F)cc1)[C@]2(F)C(=O)O [Example 35, (1R,2R,3R,5R,6R)-2-amino-2-({[(2,2-dimethylpropanoyl)oxy]methoxy}carbonyl)-6-fluoro-3-[(4-fluorophenyl)methoxy]bicyclo[3.1.0]hexane-6-carboxylic acid] |  |  | 97% | 100%
5 | N[C@]1(C(=O)OCOC(=O)c2ccccc2)[C@H]2[C@@H](C[C@H]1OCc1ccc(F)cc1)[C@]2(F)C(=O)O [Example 36, (1R,2R,3R,5R,6R)-2-amino-2-{[(benzoyloxy)methoxy]carbonyl}-6-fluoro-3-[(4-fluorophenyl)methoxy]bicyclo[3.1.0]hexane-6-carboxylic acid] |  |  | 99% | 100%
6 | N[C@]1(C(=O)OCOC(=O)C2CCCCC2)[C@H]2[C@@H](C[C@H]1OCc1ccc(F)cc1)[C@]2(F)C(=O)O [Example 37, (1R,2R,3R,5R,6R)-2-amino-2-({[(cyclohexanecarbonyl)oxy]methoxy}carbonyl)-6-fluoro-3-[(4-fluorophenyl)methoxy]bicyclo[3.1.0]hexane-6-carboxylic acid] |  |  | 96% | 102%
7 | C[C@@H](OC(=O)C12CC3CC(CC(C3)C1)C2)OC(=O)[C@@]1(N)[C@H]2[C@@H](C[C@H]1OCc1ccc(F)cc1)[C@@H]2C(=O)O [Example 38, (1S,2R,3R,5R,6S)-2-amino-3-[(4-fluorophenyl)methoxy]-2-({(1S)-1-[(tricyclo[3.3.1.1^3,7]decane-1-carbonyl)oxy]ethoxy}carbonyl)bicyclo[3.1.0]hexane-6-carboxylic acid] |  |  | 94% | 97%
8 | CC(C)[C@@H]1CC[C@@H](C)C[C@H]1OC(=O)O[C@H](C)OC(=O)[C@@]1(N)[C@H]2[C@@H](C[C@H]1OCc1ccc(F)cc1)[C@@H]2C(=O)O [Example 39, (1S,2R,3R,5R,6S)-2-amino-3-[(4-fluorophenyl)methoxy]-2-({(1R)-1-[({[(1R,2S,5R)-5-methyl-2-(propan-2-yl)cyclohexyl]oxy}carbonyl)oxy]ethoxy}carbonyl)bicyclo[3.1.0]hexane-6-carboxylic acid] |  |  |  | 97%

Results, then the molecule that gave them:

Row | IC50 [1] | IC50 [2] | Compound's percent residue (%) pH 6.5 [3] | Compound's percent residue (%) pH 1.2 [3] | SMILES
9 | 5.22 nM | 5.04 nM |  |  | COc1cc([C@@H](C)O[C@@H]2C[C@@H]3[C@H]([C@]2(N)C(=O)O)[C@@]3(F)C(=O)O)ccc1F [Compound (II)-4, (1R,2R,3R,5R,6R)-2-amino-6-fluoro-3-[(1R)-1-(4-fluoro-3-methoxyphenyl)ethoxy]bicyclo[3.1.0]hexane-2,6-dicarboxylic acid]
10 | 23.7 nM | 279 nM |  |  | N[C@]1(C(=O)O)[C@H]2[C@@H](C[C@H]1OCc1ccc(C(F)(F)F)cc1)[C@]2(F)C(=O)O [Compound (II)-5, (1R,2R,3R,5R,6R)-2-amino-6-fluoro-3-{[4-(triflouromethyl)phenyl]methoxy}bicyclo[3.1.0]hexane-2,6-dicarboxylic acid]
11 | 27.8 nM | 75.5 nM |  |  | N[C@]1(C(=O)O)[C@H]2[C@@H](C[C@H]1OCc1cccc(F)c1)[C@]2(F)C(=O)O [Compound (II)-6, (1R,2R,3R,5R,6R)-2-amino-6-fluoro-3-[(3-fluorophenyl)methoxy]bicyclo[3.1.0]hexane-2.6-dicarboxylic acid]
12 | 18.6 nM | 32.3 nM |  |  | N[C@]1(C(=O)O)[C@H]2[C@@H](C[C@H]1OCc1cccc(Cl)n1)[C@]2(F)C(=O)O [Compound (II)-8, (1R,2R,3R,5R,6R)-2-amino-3-[(6-chloropyridin-2-yl)methoxy]-6-fluorobicyclo[3.0.1]hexane-2,6-dicarboxylic acid]
13 | 49.7 nM | 50.6 nM |  |  | N[C@]1(C(=O)O)[C@H]2[C@@H](C[C@H]1OCc1ccc(Cl)nc1)[C@]2(F)C(=O)O [Compound (II)-10, (1R,2R,3R,5R,6R)-2-amino-3-[(6-chloropyridin-3-yl)methoxy]-6-fluorobicyclo[3.1.0]hexane-2,6-dicarboxylic acid]
14 | 28.4 nM | 12.4 nM |  |  | N[C@]1(C(=O)O)[C@H]2[C@@H](C[C@H]1OCc1ccc(Cl)cn1)[C@]2(F)C(=O)O [Compound (II)-11, (1R,2R,3R,5R,6R)-2-amino-3-[(5-chloropyridin-2-yl)methoxy]-6-fluorobicyclo[3.1.0]hexane-2,6-dicarboxylic acid]
15 | 24.6 nM | 54.4 nM |  |  | Cc1ccc(CO[C@@H]2C[C@@H]3[C@H]([C@]2(N)C(=O)O)[C@@]3(F)C(=O)O)cc1 [Compound (II)-12, (1R,2R,3R,5R,6R)-2-amino-6-fluoro-3-[(4-methylphenyl)methoxy]bicyclo[3.1.0]hexane-2.6-dicarboxylic acid]
16 | 37.3 nM | 4.35 nM |  |  | N[C@]1(C(=O)O)[C@H]2[C@@H](C[C@H]1OCc1cc[nH]c(=O)c1)[C@]2(F)C(=O)O [Compound (II)-13, (1R,2R,3R,5R,6R)-2-amino-6-fluoro-3-[(2-oxo-1,2-dihycropyridin-4-yl)methoxy]bicyclo[3.1.0]hexane-2.6-dicarboxylic acid]
17 |  |  | 97% | 96% | CC(C)[C@@H]1CC[C@@H](C)C[C@H]1OC(=O)O[C@H](C)OC(=O)[C@@]1(N)[C@H]2[C@@H](C[C@H]1OCc1cccc(Cl)n1)[C@]2(F)C(=O)O [Example 33, (1R,2R,3R,5R,6R)-2-amino-3-[(6-chloropyridin-2-yl)methoxy]-6-fluoro-2-({(1R)-1-[({[(1R,2S,5R)-5-methyl-2-(propan-2-yl)cyclohexyl]oxy}carbonyl)oxy]ethoxy}carbonyl)bicyclo[3.1.0]hexane-6-carboxylic acid]
